Results taken from patent publication US11084800B2 (Achillion Pharmaceuticals, Inc., priority 2017, dated 2021).

Molecular target: Human Factor D (Homo sapiens (Human), UniProt P00746)
Experiment: Human Factor D Assay
Assay type: biochemical
Conditions: Table 6; Factor D 80 nM, substrate Z-L-Lys-SBz; read-out: IC50
Procedure, shortened: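 Serum-purified Factor D (80 nM final) preincubated 5 min at room temperature with compound in 50 mM Tris, 1 M NaCl, pH 7.5. Z-L-Lys-SBz and DTNB added at 100 μM each; A405 followed every 30 s for 30 min. IC50 from nonlinear regression of rates versus concentration.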

Sequence of Human Factor D (P00746 26-253): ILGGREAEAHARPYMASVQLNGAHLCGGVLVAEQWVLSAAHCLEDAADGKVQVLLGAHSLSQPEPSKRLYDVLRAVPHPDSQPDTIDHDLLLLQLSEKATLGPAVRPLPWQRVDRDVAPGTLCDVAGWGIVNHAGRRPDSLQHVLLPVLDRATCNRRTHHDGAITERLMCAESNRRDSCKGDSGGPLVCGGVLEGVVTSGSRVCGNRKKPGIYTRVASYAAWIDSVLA

Row | SMILES | IC50 [µM]
1 | CC(=O)c1nn(CC(=O)N2C[C@H]3C[C@H]3[C@H]2C(=O)Nc2nc(Br)ccc2C)c2cnc(-c3cnc(C)nc3)cc12 [Compound 141, (1R,2S,5S)-3-(2-(3-Acetyl-5-(2-methylpyrimidin-5-yl)-1H-pyrazolo[3,4-c]pyridin-1-yl)acetyl)-N-(6-bromo-3-methylpyridin-2-yl)-3-azabicyclo[3.1.0]hexane-2-carboxamide] | < 1
2 | CC(=O)c1nn(CC(=O)N2[C@H](C(=O)Nc3nc(Br)ccc3C)C[C@@]3(CN4CC5(CCCC5)C4)C[C@@H]23)c2ccc(-c3cnc(C)nc3)cc12 [Compound 142, (1R,3S,5R)-5-(2-Azaspiro[3.4]octan-2-ylmethyl)-2-(2-(3-acetyl-5-(2-methylpyrimidin-5-yl)-1H-indazol-1-yl)acetyl)-N-(6-bromo-3-methylpyridin-2-yl)-2-azabicyclo[3.1.0]hexane-3-carboxamide] | < 1
3 | CC(=O)c1nn(CC(=O)N2[C@H](C(=O)Nc3nc(Br)ccc3C)C[C@@]3(CN(C)C)C[C@@H]23)c2c(C#N)cc(-c3cnc(C)nc3)cc12 [Compound 143, (1R,3S,5R)-2-(2-(3-Acetyl-7-cyano-5-(2-methylpyrimidin-5-yl)-1H-indazol-1-yl)acetyl)-N-(6-bromo-3-methylpyridin-2-yl)-5-((dimethylamino)methyl)-2-azabicyclo[3.1.0]hexane-3-carboxamide] | < 1
4 | CC(=O)c1nn(CC(=O)N2[C@H]3C[C@@]3(CN(C)C)C[C@H]2C(=O)Nc2nc(Br)ccc2C)c2c(C#N)cc(-c3cnc(C)nc3)cc12 [Compound 144, (1S,3S)-2-(2-(3-acetyl-7-cyano-5-(2-methylpyrimidin-5-yl)-1H-indazol-1-yl)acetyl)-N-(6-bromo-3-methylpyridin-2-yl)-5-((dimethylamino)methyl)-2-azabicyclo[3.1.0]hexane-3-carboxamide] | 1 to 10
5 | Cc1ncc(-c2ccc3c(c(C(N)=O)nn3CC(=O)N3[C@H](C(=O)Nc4nc(Br)ccc4C)C[C@@]4(C)C[C@@H]34)c2F)cn1 [Compound 145, 1-(2-((1R,3S,5R)-3-((6-Bromo-3-methylpyridin-2-yl)carbamoyl)-5-methyl-2-azabicyclo[3.1.0]hexan-2-yl)-2-oxoethyl)-4-fluoro-5-(2-methylpyrimidin-5-yl)-1H-indazole-3-carboxamide] | < 1
6 | CC(=O)c1nn(CC(=O)N2[C@H](C(=O)Nc3nc(Br)ccc3C)C[C@@]3(C)C[C@@H]23)c2c(C(F)F)cc(-c3cnc(C)nc3)cc12 [Compound 146, (1R,3S,5R)-2-(2-(3-Acetyl-7-(difluoromethyl)-5-(2-methylpyrimidin-5-yl)-1H-indazol-1-yl)acetyl)-N-(6-bromo-3-methylpyridin-2-yl)-5-methyl-2-azabicyclo[3.1.0]hexane-3-carboxamide] | < 1
7 | CC(=O)c1nn(CC(=O)N2[C@H](C(=O)Nc3nc(Br)ccc3C)C[C@@]3(C)C[C@@H]23)c2c(F)cc(-c3cnc(C)nc3)cc12 [Compound 147, (1R,3S,5R)-2-(2-(3-Acetyl-7-fluoro-5-(2-methylpyrimidin-5-yl)-1H-indazol-1-yl)acetyl)-N-(6-bromo-3-methylpyridin-2-yl)-5-methyl-2-azabicyclo[3.1.0]hexane-3-carboxamide] | < 1
8 | CC(=O)c1nn(CC(=O)N2[C@H](C(=O)Nc3nc(Br)ccc3C)C[C@@]3(C)C[C@@H]23)c2ccc(-c3cnc(CC(=O)N(C)C)nc3)cc12 [Compound 148, (1R,3S,5R)-2-(2-(3-Acetyl-5-(2-(2-(dimethylamino)-2-oxoethyl)pyrimidin-5-yl)-1H-indazol-1-yl)acetyl)-N-(6-bromo-3-methylpyridin-2-yl)-5-methyl-2-azabicyclo[3.1.0]hexane-3-carboxamide] | < 1
9 | CC(=O)c1nn(CC(=O)N2[C@H](C(=O)Nc3nc(Br)ccc3C)C[C@@]3(CN4CCC4)C[C@@H]23)c2c(C)cc(-c3cnc(C)nc3)cc12 [Compound 149, (1R,3S,5R)-2-(2-(3-Acetyl-7-methyl-5-(2-methylpyrimidin-5-yl)-1H-indazol-1-yl)acetyl)-5-(azetidin-1-ylmethyl)-N-(6-bromo-3-methylpyridin-2-yl)-2-azabicyclo[3.1.0]hexane-3-carboxamide] | < 1
10 | CC(=O)c1nn(CC(=O)N2[C@H](C(=O)Nc3nc(Br)ccc3C)C[C@@]3(CN4CC(F)(F)C4)C[C@@H]23)c2c(C)cc(-c3cnc(C)nc3)cc12 [Compound 150, (1R,3S,5R)-2-(2-(3-Acetyl-7-methyl-5-(2-methylpyrimidin-5-yl)-1H-indazol-1-yl)acetyl)-N-(6-bromo-3-methylpyridin-2-yl)-5-((3,3-difluoroazetidin-1-yl)methyl)-2-azabicyclo[3.1.0]hexane-3-carboxamide] | < 1
11 | CC(=O)c1nn(CC(=O)N2[C@H](C(=O)Nc3nc(Br)ccc3C)C[C@@]3(CNC4CC4)C[C@@H]23)c2ccc(-c3cnc(C)nc3)cc12 [Compound 151, (1R,3S,5R)-2-(2-(3-Acetyl-5-(2-methylpyrimidin-5-yl)-1H-indazol-1-yl)acetyl)-N-(6-bromo-3-methylpyridin-2-yl)-5-((cyclopropylamino)methyl)-2-azabicyclo[3.1.0]hexane-3-carboxamide] | < 1
12 | COCc1ccc(Br)nc1NC(=O)[C@@H]1C[C@@]2(COC)C[C@H]2N1C(=O)Cn1nc(C(C)=O)c2cc(-c3cnc(C)nc3)ccc21 [Compound 152, (1R,3S,5S)-2-(2-(3-Acetyl-5-(2-methylpyrimidin-5-yl)-1H-indazol-1-yl)acetyl)-N-(6-bromo-3-(methoxymethyl)pyridin-2-yl)-5-(methoxymethyl)-2-azabicyclo[3.1.0]hexane-3-carboxamide] | < 1
13 | COCc1ccc(Br)nc1NC(=O)[C@@H]1C[C@@]2(CNC(=O)[C@@H](NC(=O)OC)C(C)C)C[C@H]2N1C(=O)Cn1nc(C(C)=O)c2cc(-c3cnc(C)nc3)ccc21 [Compound 153, Methyl ((S)-1-((((1R,3S,5R)-2-(2-(3-acetyl-5-(2-methylpyrimidin-5-yl)-1H-indazol-1-yl)acetyl)-3-((6-bromo-3-(methoxymethyl)pyridin-2-yl)carbamoyl)-2-azabicyclo[3.1.0]hexan-5-yl)methyl)amino)-3-methyl-1-oxobutan-2-yl)carbamate] | < 1
14 | C=CCOC[C@@]12C[C@@H](C(=O)Nc3nc(Br)ccc3C)N(C(=O)Cn3nc(C(C)=O)c4cc(-c5cnc(C)nc5)cc(CC=C)c43)[C@@H]1C2 [Compound 154, (1R,3S,5S)-2-(2-(3-acetyl-7-allyl-5-(2-methylpyrimidin-5-yl)-1H-indazol-1-yl)acetyl)-5-((allyloxy)methyl)-N-(6-bromo-3-methylpyridin-2-yl)-2-azabicyclo[3.1.0]hexane-3-carboxamide] | < 1
15 | CC(=O)c1nn(CC(=O)N2[C@H](C(=O)Nc3nc(Br)ccc3C)C[C@@]3(CN(C)C)C[C@@H]23)c2ccc(-c3cnc(C)nc3)c(F)c12 [Compound 155, (1R,3S,5R)-2-(2-(3-Acetyl-4-fluoro-5-(2-methylpyrimidin-5-yl)-1H-indazol-1-yl)acetyl)-N-(6-bromo-3-methylpyridin-2-yl)-5-((dimethylamino)methyl)-2-azabicyclo[3.1.0]hexane-3-carboxamide] | < 1
16 | CC(=O)c1nn(CC(=O)N2[C@H]3C[C@@]3(CN(C)C)C[C@H]2C(=O)Nc2nc(Br)ccc2C)c2ccc(-c3cnc(C)nc3)c(F)c12 [Compound 156, (1S,3S,5S)-2-(2-(3-Acetyl-4-fluoro-5-(2-methylpyrimidin-5-yl)-1H-indazol-1-yl)acetyl)-N-(6-bromo-3-methylpyridin-2-yl)-5-((dimethylamino)methyl)-2-azabicyclo[3.1.0]hexane-3-carboxamide] | > 10
17 | CC(=O)c1nn(CC(=O)N2[C@H](C(=O)Nc3nc(Br)ccc3C)C[C@@]3(COCCN(C)C)C[C@@H]23)c2ccc(-c3cnc(C)nc3)cc12 [Compound 157] | < 1
18 | CC(=O)c1nn(CC(=O)N2C[C@H]3C[C@H]3[C@H]2C(=O)Nc2nc(Br)c(F)cc2C)c2cnc(-c3cnc(C)nc3)cc12 [Compound 172, (1R,2S,5S)-3-(2-(3-Acetyl-5-(2-methylpyrimidin-5-yl)-1H-pyrazolo[3,4-c]pyridin-1-yl)acetyl)-N-(6-bromo-5-fluoro-3-methylpyridin-2-yl)-3-azabicyclo[3.1.0]hexane-2-carboxamide] | < 1
19 | CC(=O)c1nn(CC(=O)N2[C@H](C(=O)Nc3nc(Br)ccc3C)C[C@@]3(C(N)=O)C[C@@H]23)c2c(C)cc(-c3cnc(C)nc3)cc12 [Compound 173, (1R,3S,5S)-2-(2-(3-acetyl-7-methyl-5-(2-methylpyrimidin-5-yl)-1H-indazol-1-yl)acetyl)-N3-(6-bromo-3-methylpyridin-2-yl)-2-azabicyclo[3 .1.0]hexane-3,5-dicarboxamide] | > 10
20 | CC(=O)c1nn(CC(=O)N2[C@H](C(=O)Nc3nc(Br)ccc3C)C[C@@]3(C#N)C[C@@H]23)c2c(C)cc(-c3cnc(C)nc3)cc12 [Compound 174, (1R,3S,5S)-2-(2-(3-acetyl-7-methyl-5-(2-methylpyrimidin-5-yl)-1H-indazol-1-yl)acetyl)-N-(6-bromo-3-methylpyridin-2-yl)-5-cyano-2-azabicyclo[3.1.0]hexane-3-carboxamide] | > 10
21 | CC(=O)c1nn(CC(=O)N2C[C@@H](C(F)(F)F)C[C@H]2C(=O)Nc2nc(Br)ccc2C)c2c(C)cc(-c3cnc(C)nc3)cc12 [Compound 175] | < 1
22 | CC(=O)c1nn(CC(=O)N2[C@H](C(=O)Nc3nc(Br)ccc3C)C[C@@]3(CN(CCF)CCF)C[C@@H]23)c2c(C)cc(-c3cnc(C)nc3)cc12 [Compound 176] | < 1
23 | CC(=O)c1nn(CC(=O)N2[C@H](C(=O)Nc3nc(Br)ccc3CN3CC(F)(F)C3)C[C@@]3(C)C[C@@H]23)c2ccc(-c3cnc(C)nc3)cc12 [Compound 177, (1R,3S,5R)-2-(2-(3-Acetyl-5-(2-methylpyrimidin-5-yl)-1H-indazol-1-yl)acetyl)-N-(6-bromo-3-((3,3-difluoroazetidin-1-yl)methyl)pyridin-2-yl)-5-methyl-2-azabicyclo[3.1.0]hexane-3-carboxamide] | < 1
